Laboratory results taken from publication PMC9320560, “Structure-Based Identification and Biological Characterization of New NAPRT Inhibitors” (Pharmaceuticals, 2022).
“Also recorded” adds a separate entry of the source.

Experiments:
recombinant hNAPRT [1] = target: T1, recombinant hNAPRT (Homo sapiens, UniProt Q6XQN6); test: hNAPRT melting temperature determination (DSF); format: binding; conditions: 100 μM inhibitor, 5 μM hNAPRT
T1 construct: His-tag (C); made in house; host or cells: E. coli
T1 sequence (Q6XQN6 1-538): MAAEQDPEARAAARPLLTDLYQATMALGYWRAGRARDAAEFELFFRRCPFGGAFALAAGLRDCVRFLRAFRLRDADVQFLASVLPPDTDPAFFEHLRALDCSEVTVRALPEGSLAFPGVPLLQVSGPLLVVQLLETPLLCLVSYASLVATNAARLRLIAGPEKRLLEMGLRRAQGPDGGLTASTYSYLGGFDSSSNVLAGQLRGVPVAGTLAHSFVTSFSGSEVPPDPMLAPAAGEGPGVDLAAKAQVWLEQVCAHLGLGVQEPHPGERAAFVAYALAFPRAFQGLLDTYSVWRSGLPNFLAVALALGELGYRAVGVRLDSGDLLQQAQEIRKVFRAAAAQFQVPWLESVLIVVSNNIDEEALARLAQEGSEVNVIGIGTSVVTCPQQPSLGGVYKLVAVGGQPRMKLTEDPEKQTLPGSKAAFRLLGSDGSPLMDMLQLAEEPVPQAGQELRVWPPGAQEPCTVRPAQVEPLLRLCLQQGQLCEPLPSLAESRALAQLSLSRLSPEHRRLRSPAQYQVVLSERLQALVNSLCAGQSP
Protocol: With the purpose to provide support to the results that were obtained in the enzymatic activity assay, the ability of the new hNAPRT inhibitors to stabilize the protein through binding was evaluated via the measurement of the hNAPRT melting temperature in the presence or absence of the inhibitors at a 100 μM concentration. The resulting Tm shifts are depicted in Figure 5. […] A plausible explanation for this outcome is that larger compounds are more likely to establish a higher number of interactions and thus result in greater stabilization of a given protein.
Figure 5 NAPRT inhibitors MMB-128 and MMB-131 directly engage recombinant hNAPRT. Differential scanning fluorimetry (DSF) was used to determine the thermal stabilization of hNAPRT protein upon inhibitor binding. Recombinant hNAPRT protein was exposed to 100 μM hNAPRT inhibitors over a defined temperature gradient and the melting temperature Tm was calculated for each compound. The data are shown as means ± standard error of the means (SEM) of two technical replicates with three biological replicates each. * p < 0.05; unpaired t-test.
The melting temperature ™ of hNAPRT was determined through the differential scanning fluorimetry (DSF) technique. Triplicates of 100 μM of each test compound and DMSO were added to a 96-well clear bottom BioRad PCR plate. Subsequently, DSF protein buffer, containing 5 μM of recombinant hNAPRT protein and 5X SPYRO® Orange (S5692, Sigma-Aldrich) in 20 mM HEPES pH 7.5, 100 mM NaCl, 10 mM Mg-acetate, and 1 mM DTT was added. The plate was sealed and exposed to a temperature gradient from 20 to 95 °C in a BioRad CFX96 Real-Time System. The fluorescence for each temperature increment was measured at 465–580 nm with an excitation wavelength of 465 nm. The DSF templates that were provided by Niesen et al. were used for data analysis followed by GraphPad Prism 8 for statistical analysis of the generated data.

[2] = test system: intracellular NAD+ levels in OVCAR-5 cells; test: Intracellular NAD+ quantification (enzyme cycling assay); format: cell-based; conditions: for drop in NAD+ levels / interaction with FK866 in NAD+ reduction: test compound 100 µM + 30 nM FK866, 20 h
Protocol: The assay that was performed on OVCAR-5 cell viability led to a set of potential NAPRT inhibitors, namely IM 29, IM 38, IM 43, IM 49, MMB-128, MMB-131, MMB-268, and MMB-312. In order to confirm that the cited compounds sensitized OVCAR-5 cells to the NAMPT inhibitor FK866 by interfering with NAD biosynthesis, we quantified the intracellular NAD^+ levels in OVCAR-5 cells after 20-h treatments with these compounds with or without FK866.
Figure 3 A subset of test compounds cooperates synergistically with FK866 in decreasing intracellular NAD^+ levels in OVCAR-5 cells. The compounds were administered to cells alone or in combination with FK866 for 20 h. Quantification of NAD^+ was performed via an enzyme cycling assay and normalized to cell lysate protein content. The results are the mean ± SD of two technical replicates with two biological replicates each. *, p < 0.05; **, p < 0.01; ***, p < 0.001 vs. the respective control, i.e., FK866-untreated control for the test compounds that were administered alone to cells, and FK866-treated control for the combinations of test compound and FK866; §, p < 0.05 versus FK866-untreated, control cells.
A total of 1 × 10^5 OVCAR-5 cells/well were plated in 24-well plates in the regular culture medium. 24 h later the cell medium was removed and the cells were cultured either in the regular medium that was supplemented with 0.3 µM nicotinic acid (control wells) or in the treatment medium (regular medium with 0.3 µM nicotinic acid and combinations of 30 nM FK866, 1 mM 2-HNA and 100 µM of test compounds). Each condition was performed in duplicate and the cells remained under treatment for a total of 20 h at 37 °C. Thereafter, the cell medium was removed and the cells were harvested and lysed with 0.6 M perchloric acid (PCA). Samples in PCA were neutralized by diluting the extracts in 100 mM sodium phosphate buffer (pH 8) and the total intracellular NAD^+ content was determined with a sensitive enzyme cycling assay that exploits the use of alcohol dehydrogenase. The obtained NAD^+ values were normalized to cell lysate protein content that was quantified by the Bradford method.

OVCAR-5 cells = test: Cell viability assay (SRB): sensitization of OVCAR-5 cells to FK866; format: cell-based; conditions: for combination index (CI) with FK866: 0.3 µM nicotinic acid in medium; for cell viability, single-agent treatment: 72 h, 100 nM FK866 alone or 1 mM 2-HNA alone
Excerpt: The first assay that we performed to test the putative NAPRT inhibitors was based on the principle that NAPRT-expressing OVCAR-5 cells are resistant to FK866 whereas the simultaneous chemical inhibition of NAPRT with 2-HNA renders the cells sensitive to the NAMPT inhibitor due to the cooperation between FK866 and 2-HNA in depleting the intracellular NAD pool. […] Thus, 2-HNA was used throughout the study as a positive control in our cell viability assay and any test compound resembling its activity was considered a potential NAPRT inhibitor. It is worth mentioning that, to reflect the physiological contribution of the Preiss–Handler pathway to NAD biosynthesis, all cell-based assays that are presented in this study were performed under a nicotinic acid concentration of 0.3 µM in the cell culture medium (Figure S1).
We decided to use combination index (CI) as a measure to determine the degree of interaction between FK866 and the test compounds i.e., to identify potential new NAPRT inhibitors. A CI < 1 indicates a synergistic interaction between the test compound and FK866 in decreasing cell viability. A CI = 1 and a CI > 1 are indicative of an additive and of an antagonistic effect, respectively.
A total of 3 × 10^3 OVCAR-5 cells/well were plated in 96-well plates in the regular culture medium. 24 h later the cell medium was removed and the cells were subsequently incubated either in the regular medium that was supplemented with 0.3 µM nicotinic acid (control wells) or in the treatment medium which contained 0.3 µM nicotinic acid and combinations of 100 nM FK866, 1 mM 2-HNA, and 100 µM of test compounds. Each condition was performed in triplicate and the cells remained under treatment for a total of 72 h at 37 °C. Thereafter, the culture plates were fixed with 10% trichloroacetic acid at 4 °C for 20 min, washed with cold water, and dried overnight. The plates were stained with 0.04% sulforhodamine B (SRB) in 1% acetic acid, washed four times with 1% acetic acid to remove the unbound dye, and dried overnight. Lastly, Trizma®-base 10 mM was added to the plates and cell viability was quantified by absorbance measurements on a Tecan Infinite® 200 PRO instrument.
To quantify the extent of the interaction between FK866 and the putative NAPRT inhibitors or 2-HNA, we applied the combination index (CI) equation that is depicted below:(1) CI=mortality % A+mortality % B /mortality % A+B where: ‘A’ refers to the treatment of cells with FK866 100 nM; ‘B’ refers to the treatment of cells with the test compound 100 µM or 2-HNA 1 mM; ‘A + B’ refers to the coadministration of FK866 100 nM and the test compound at 100 µM or 2-HNA 1 mM. A synergistic interaction is evidenced by CI < 1, additive effect produces CI close to 1, whereas CI > 1 corresponds to antagonistic effect.

recombinant hNAPRT [3] = target: T1, recombinant hNAPRT; test: hNAPRT inhibition assay (HPLC of NA and NAMN); format: biochemical; conditions: for IC50: 100 µM nicotinic acid, 200 µM PRPP, 45 min at 37 °C, formation of NAMN
Protocol: hNAPRT was expressed in E. coli with an N-terminal His-tag and purified as described above. The enzymatic reactions were carried out at 37 °C in standard reaction mixtures containing 50 mM Tris-HCl, pH 7.4, 10 mM KCl, 2 mM MgCl2, 100 µM nicotinic acid, 200 µM PRPP, 0.1 mg/mL purified recombinant hNAPRT, and the test compound at five different concentrations ranging from 20 µM to 1000 µM.
Blank mixtures without compounds but with equal amounts of DMSO were set in parallel and their rates fixed as 100% activity. NAPRT was pre-incubated with the compounds for 5 min and reactions were started by the addition of the enzyme substrates and stopped after 45 min of incubation by heating to 85 °C for 3 min. Following centrifugation of the reaction mix, the supernatant was analyzed by HPLC by injection into a reverse-phase column (XTerra MS C18 Column, 125Å, 5 μm, 4.6 × 150 mm, Waters). The eluted species were monitored at 260 nm and the peaks of nicotinic acid and nicotinic acid mononucleotide were quantified with reference to standard curves. The percentage of nicotinic acid conversion was calculated for each reaction and the IC50 values for the active compounds were determined with GraphPad Prism 8 software (GraphPad Software, S. Diego, CA, USA).

[4] = Preparation of 50 mM stock solution in DMSO; format: physicochemical
Protocol: As noted in the methodology section, a 50 mM stock solution in DMSO was prepared for each compound.
Compounds were obtained in mg quantity and subsequently dissolved in DMSO to prepare a 50 mM stock solution. The purity of all compounds was > 95%, as declared by vendors or collaborators.

[5] = test compound 100 µM + 100 nM FK866, 72 h

Structure (SMILES)	Tm shift of hNAPRT (recombinant hNAPRT [1])	drop in NAD+ levels [2]	cytotoxicity in combination with FK866 (OVCAR-5 cells; [5])	IC50 (recombinant hNAPRT [3]) [µM]	also measured
CC(C)(C)C(=O)OCCCn1cc(CCCN2CC(O)C(O)C2CNC(=O)c2ccccc2)nn1 (stereo not drawn) [MMB-128]	approximately 0.5 °C	42.9–56.4%	high cytotoxicity		
COc1ccc2cc(C=O)c(O)nc2c1 [IM 43]			high cytotoxicity		interaction with FK866 in NAD+ reduction [2]: additive effects
OC1CNC(Cn2cc(-c3cc(C(F)(F)F)cc(C(F)(F)F)c3)nn2)C1O (stereo not drawn) [MMB-268]		42.9–56.4%	high cytotoxicity		inhibition of hNAPRT (recombinant hNAPRT [3]; data not shown): negligible inhibition
COc1cc(OC)cc(-c2cn(CC3NCC(O)C3O)nn2)c1 (stereo not drawn) [MMB-312]			less pronounced cytotoxicity		interaction with FK866 in NAD+ reduction [2]: additive effects; combination index (CI) with FK866 (OVCAR-5 cells; test compound 100 µM + 100 nM FK866, 72 h, CI < 1 synergistic): 0.12
CC(C)(C)C(=O)OCCCn1cc(CCCN2CC(O)C(O)C2Cn2cc(-c3ccccc3)nn2)nn1 (stereo not drawn) [MMB-131]	approximately 0.5 °C	42.9–56.4%	less pronounced cytotoxicity	242	
O=C(Cn1c(=O)sc2ccccc21)Nc1cccc(C(=O)O)c1 [IM 49]	remained unchanged		less pronounced cytotoxicity	232	interaction with FK866 in NAD+ reduction [2]: lower degree of synergism; effect on intracellular NAD+ levels, compound alone ([2]; test compound 100 µM alone, 20 h): strongly reduced
Cc1cc(C(=O)O)nc(N)n1 [IM 28]					solubility in DMSO [4]: could not be solubilized
O=C(O)c1cccnc1O [Compound 2-HNA, 2-hydroxynicotinic acid, reference compound]					drop in intracellular NAD+ concentration ([2]; 1 mM 2-HNA + 30 nM FK866, 20 h): 86%; cytotoxicity of co-treatment with FK866 (OVCAR-5 cells; 1 mM 2-HNA + 100 nM FK866, 72 h): pronounced cell death; also recorded: marked cytotoxicity; combination index (CI) with FK866 (OVCAR-5 cells; 2-HNA 1 mM + 100 nM FK866, 72 h): 0.08; cell viability, single-agent treatment (OVCAR-5 cells): withstood
NCc1cc2c(cc1Cl)OCO2 [IM 29]	remained unchanged	42.9–56.4%	high cytotoxicity	160	potentiation of the effect of FK866 in reducing intracellular NAD levels ([2]; combination with FK866): more than two-fold
CC(Oc1ccccc1Cl)C(=O)Nc1cccc(C(=O)O)c1 (stereo not drawn) [IM 38]	remained unchanged	42.9–56.4%	less pronounced cytotoxicity	265	
O=C(/C=C/c1cccnc1)NCCCCC1CCN(C(=O)c2ccccc2)CC1 [FK866, reference compound]					decrease of intracellular NAD+ levels ([2]; 30 nM FK866 alone, 20 h): 24%; cell viability, single-agent treatment (OVCAR-5 cells): withstood
